Data on 13 molecules can be found in patent US6391305B1, “Conjugates useful in the treatment of prostate cancer” (priority 1999, dated 2002).

Read-outs that look alike come from different tables or passages of the source. Non-standard residues stand in square brackets, D forms with d. Residues, ends and D or L forms follow the SMILES beside them. *: point of attachment. Doxorubicin(3'-N) = COc1cccc2c1C(=O)c1c(O)c3c(c(O)c1C2=O)C[C@@](O)(C(=O)CO)C[C@@H]3O[C@H]1C[C@H](N*)[C@H](O)[C@H](C)O1; Decanoyl(3,6,9-trioxa) = COCCOCCOCC(=O)*; Glyceroyl(2S) = O=C([C@@H](O)CO)*; Glyceroyl(2R) = O=C([C@H](O)CO)*; hArg = N=C(N)NCCCC[C@H](N)C(=O)O; X1 = O=C([C@H](O)[C@@H](O)CO)*; Chg = N[C@H](C(=O)O)C1CCCCC1; Glycolyl = O=C(CO)* A value given as a limit tells only on which side of the number the result lay.

The target of data set [1] is T1, enzymatically active free PSA (Homo sapiens, UniProt P07288).
T1 construct: required for 50% cleavage of the noted oligopeptides with enzymatically active free PSA
In words: Recognition (cleavage) of oligopeptide-doxorubicin conjugates by free PSA, HPLC. The format is biochemical. The note with it: DOX conjugate; for Time to 50% Substrate Cleavage by York PSA: PSA digestion buffer pH7.4, 140 mM NaCl, molar ratio to PSA 100 to 1. As to the method: If no salt is indicated for the conjugate, the free conjugate was tested.

The test system of data set [2] is LNCap prostate tumor cells. In words: In vitro cytotoxicity, Alamar Blue assay, LNCaP. In kind it is cell-based. Conditions: 72 HRS, read-out: LNCaP Cell Kill in 72 HRS, {48 HRS} EC 50. The method, then:
(§1) The cytotoxicities of the cleaveable oligopeptide-doxorubicin conjugates, prepared as described in Examples 3-6, against a line of cells which is known to be killed by unmodified doxorubicin was assessed with an Alamar Blue assay. Specifically, cell cultures of LNCap prostate tumor cells or DuPRO cells in 96 well plates was diluted with medium containing various concentrations of a given conjugate (final plate well volume of 200 μl ). The cells were incubated for 3 days at 37° C., 20 μl of Alamar Blue is added to the assay well. The cells were further incubated and the assay plates were read on a EL-310 ELISA reader at the dual wavelengths of 570 and 600 nm at 4 and 7 hours after addition of Alamar Blue. Relative percentage viability at the various concentration of conjugate tested was then calculated versus control (no conjugate) cultures. If no salt is indicated, the free conjugate was tested.
(In general: Alamar Blue is a resazurin reagent that responds to reducing activity.)

Another data set has as its system DuPRO cells. In words: In vitro cytotoxicity, Alamar Blue assay, DuPRO. The note with it: value in parentheses beside the LNCaP value, read-out: DuPRO cell kill EC 50. The format is cell-based. As to the method: as §1
The mark [3] stands for this setting: listed as PEG(2)-ShRYQ-SL-DOX(3′).

T1 sequence (P07288 25-261): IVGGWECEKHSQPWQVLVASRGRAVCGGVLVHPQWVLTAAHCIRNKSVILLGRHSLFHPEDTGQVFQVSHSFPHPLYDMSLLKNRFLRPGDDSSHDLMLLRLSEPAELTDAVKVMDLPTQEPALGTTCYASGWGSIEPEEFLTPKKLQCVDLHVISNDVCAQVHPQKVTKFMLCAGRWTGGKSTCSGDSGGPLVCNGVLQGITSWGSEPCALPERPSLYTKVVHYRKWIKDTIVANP

For the molecule `COc1cccc2c1C(=O)c1c(O)c3c(c(O)c1C2=O)C[C@@](O)(C(=O)CO)C[C@@H]3O[C@H]1C[C@H](NC(=O)[C@@H](CC(C)C)NC(=O)[C@H](CO)NC(=O)[C@H](CCC(N)=O)NC(=O)[C@@H](NC(=O)[C@H](CO)NC(=O)[C@H](CO)NC(=O)[C@@H](O)CO)C2CCCCC2)[C@H](O)[C@H](C)O1` [(l)(2,3-dihydroxypropionyl)SerSerChgGln-Ser(dLeu)-DOX (3′)] ({Glyceroyl(2S)}-SS[Chg]QS[dL]-{Doxorubicin(3'-N)}), the “Substrate cleavage by York PSA at 3 HOUR” value in data set [1] (3 hours) is given as 22%. The EC50 (in data set [2]; in the data set with DuPRO cells) was over 100 µM throughout.

For `COc1cccc2c1C(=O)c1c(O)c3c(c(O)c1C2=O)C[C@@](O)(C(=O)CO)C[C@@H]3O[C@H]1C[C@H](NC(=O)[C@H](CC(C)C)NC(=O)[C@H](CO)NC(=O)[C@H](CCC(N)=O)NC(=O)[C@@H](NC(=O)[C@H](CCCCNC(=N)N)NC(=O)[C@H](CO)NC(=O)[C@@H](O)CO)C2CCCCC2)[C@H](O)[C@H](C)O1` [(l) 2,3-dihydroxypropionyl-SerhArgChgGln-SerLeu-DOX (3′)] ({Glyceroyl(2S)}-S[hArg][Chg]QSL-{Doxorubicin(3'-N)}), the “Time to 50% Substrate Cleavage by York PSA” value in data set [1] turned out to be 15 min. Also, the EC50 is 9.4 µM in data set [2] and over 100 µM with DuPRO cells.

Consider `COc1cccc2c1C(=O)c1c(O)c3c(c(O)c1C2=O)C[C@@](O)(C(=O)CO)C[C@@H]3O[C@H]1C[C@H](NC(=O)[C@H](CC(C)C)NC(=O)[C@H](CO)NC(=O)[C@H](CCC(N)=O)NC(=O)[C@@H](NC(=O)[C@H](CO)NC(=O)[C@H](CO)NC(=O)[C@H](CO)NC(=O)[C@H](O)CO)C2CCCCC2)[C@H](O)[C@H](C)O1` [N-2(R)-2,3-dihydroxypropionyl-Ser-Ser-Ser-Chg-Gln-Ser-Leu-Dox] ({Glyceroyl(2R)}-SSS[Chg]QSL-{Doxorubicin(3'-N)}), for which, in data set [1], the “Time to 50% Substrate Cleavage by York PSA” value amounted to 55 min. Moreover, the EC50 is 5.8 µM in data set [2] and over 100 µM in the data set with DuPRO cells.

As for `COc1cccc2c1C(=O)c1c(O)c3c(c(O)c1C2=O)C[C@@](O)(C(=O)CO)C[C@@H]3O[C@H]1C[C@H](NC(=O)[C@H](CC(C)C)NC(=O)[C@H](CO)NC(=O)[C@H](CCC(N)=O)NC(=O)[C@@H](NC(=O)[C@H](CO)NC(=O)[C@H](CO)NC(=O)CO)C2CCCCC2)[C@H](O)[C@H](C)O1` [2-hydroxyacetyl-SSChgQ-SL-DOX (3′)] (Glycolyl-SS[Chg]QSL-{Doxorubicin(3'-N)}), in data set [1], the “Time to 50% Substrate Cleavage by York PSA” value was 45 min. In addition, the EC50 in data set [2] is 4.8 µM; in the data set on DuPRO cells, over 100 µM.

Take `COc1cccc2c1C(=O)c1c(O)c3c(c(O)c1C2=O)C[C@@](O)(C(=O)CO)C[C@@H]3O[C@H]1C[C@H](NC(=O)[C@H](CC(C)C)NC(=O)[C@H](CO)NC(=O)[C@H](CCC(N)=O)NC(=O)[C@@H](NC(=O)[C@H](CCCCNC(=N)N)NC(=O)[C@H](CO)NC(=O)[C@H](O)CO)C2CCCCC2)[C@H](O)[C@H](C)O1` [(d) 2,3-dihydroxypropionyl-SerhArgChgGln-SerLeu-DOX (3′)] ({Glyceroyl(2R)}-S[hArg][Chg]QSL-{Doxorubicin(3'-N)}): the “Time to 50% Substrate Cleavage by York PSA” value in data set [1] worked out at 65 min. Further, the EC50 is 5.8 µM in data set [2] and over 100 µM in the data set with DuPRO cells.

In the case of `COCCOCCOCC(=O)N[C@@H](CO)C(=O)N[C@@H](CO)C(=O)N[C@H](C(=O)N[C@@H](CCC(N)=O)C(=O)N[C@@H](CO)C(=O)N[C@@H](CC(C)C)C(=O)N[C@H]1C[C@H](O[C@H]2C[C@](O)(C(=O)CO)Cc3c(O)c4c(c(O)c32)C(=O)c2c(OC)cccc2C4=O)O[C@@H](C)[C@H]1O)C1CCCCC1` [PEG(2)SSChgQ-SL-DOX (3′), PEG(2)SerSerChgGln-SerLeu-DOX (3′)] ({Decanoyl(3,6,9-trioxa)}-SS[Chg]QSL-{Doxorubicin(3'-N)}), the “Time to 50% Substrate Cleavage by York PSA” value in data set [1] is 90 min. Besides, the EC50 was 8.8 µM in data set [2] and over 100 µM in the data set on DuPRO cells.

Regarding `COc1cccc2c1C(=O)c1c(O)c3c(c(O)c1C2=O)C[C@@](O)(C(=O)CO)C[C@@H]3O[C@H]1C[C@H](NC(=O)[C@H](CC(C)C)NC(=O)[C@H](CO)NC(=O)[C@H](CCC(N)=O)NC(=O)[C@@H](NC(=O)[C@H](CCCCNC(=N)N)NC(=O)[C@H](CO)NC(=O)[C@H](O)[C@@H](O)CO)C2CCCCC2)[C@H](O)[C@H](C)O1` [(2R,3S) 2,3,4-trihydroxybutanoyl-SerhArgChgGln-SerLeu-DOX (3′)] (X1-S[hArg][Chg]QSL-{Doxorubicin(3'-N)}), in data set [1], the “Time to 50% Substrate Cleavage by York PSA” value was 45 min. Further, the EC50 in data set [2] was 14.1 µM; with DuPRO cells it was over 100 µM.

`COc1cccc2c1C(=O)c1c(O)c3c(c(O)c1C2=O)C[C@@](O)(C(=O)CO)C[C@@H]3O[C@H]1C[C@H](NC(=O)[C@H](CC(C)C)NC(=O)[C@H](CO)NC(=O)[C@H](CCC(N)=O)NC(=O)[C@@H](NC(=O)[C@H](CO)NC(=O)[C@H](CO)NC(=O)[C@H](CCCCNC(=N)N)NC(=O)[C@H](O)CO)C2CCCCC2)[C@H](O)[C@H](C)O1` [(d)(2,3-dihydroxypropionyl)-hArgSerSerChgGln-SerLeu-DOX(3′)] ({Glyceroyl(2R)}-[hArg]SS[Chg]QSL-{Doxorubicin(3'-N)}): the “Time to 50% Substrate Cleavage by York PSA” value in data set [1] worked out at 12 min. The EC50 in data set [2] was 7.7 µM; with DuPRO cells it was over 100 µM.

With `COCCOCCOCC(=O)N[C@@H](CO)C(=O)N[C@@H](CCCCNC(=N)N)C(=O)N[C@@H](Cc1ccc(O)cc1)C(=O)N[C@@H](CCC(N)=O)C(=O)N[C@@H](CO)C(=O)N[C@@H](CC(C)C)C(=O)N[C@H]1C[C@H](O[C@H]2C[C@](O)(C(=O)CO)Cc3c(O)c4c(c(O)c32)C(=O)c2c(OC)cccc2C4=O)O[C@@H](C)[C@H]1O` [PEG(2)-SHomoRYQ-SL-DOX(3′), PEG(2)-SerhArgTyrGln-SerLeu-DOX(3′)] ({Decanoyl(3,6,9-trioxa)}-S[hArg]YQSL-{Doxorubicin(3'-N)}), the “Time to 50% Substrate Cleavage by York PSA” value in data set [1] is 35 min. Moreover, the EC50 in data set [2] (setting [3]) was 4.5 µM; in the data set on DuPRO cells (setting [3]) it was over 100 µM.

With `COc1cccc2c1C(=O)c1c(O)c3c(c(O)c1C2=O)C[C@@](O)(C(=O)CO)C[C@@H]3O[C@H]1C[C@H](NC(=O)[C@H](CC(C)C)NC(=O)[C@H](CO)NC(=O)[C@H](CCC(N)=O)NC(=O)[C@@H](NC(=O)[C@H](CO)NC(=O)[C@H](CO)NC(=O)[C@H](CO)NC(=O)CO)C2CCCCC2)[C@H](O)[C@H](C)O1` [2-hydroxyacetyl-SSSChgQ-SL-DOX (3′), N-(2-Hydroxyacetyl)-Ser-Ser-Ser-Chg-Gln-Ser-Leu-Dox] (Glycolyl-SSS[Chg]QSL-{Doxorubicin(3'-N)}), the “Time to 50% Substrate Cleavage by York PSA” value in data set [1] was found to be 25 min. Further, the EC50 in data set [2] was 7.2 µM; in the data set on DuPRO cells, over 100 µM.

With `COc1cccc2c1C(=O)c1c(O)c3c(c(O)c1C2=O)C[C@@](O)(C(=O)CO)C[C@@H]3O[C@H]1C[C@H](NC(=O)[C@H](CC(C)C)NC(=O)[C@H](CO)NC(=O)[C@H](CCC(N)=O)NC(=O)[C@@H](NC(=O)[C@H](CO)NC(=O)[C@H](CO)NC(=O)[C@H](CO)NC(=O)[C@@H](O)CO)C2CCCCC2)[C@H](O)[C@H](C)O1` [N-2(S)-2,3-dihydroxypropionyl-Ser-Ser-Ser-Chg-Gln-Ser-Leu-Dox] ({Glyceroyl(2S)}-SSS[Chg]QSL-{Doxorubicin(3'-N)}), the “Time to 50% Substrate Cleavage by York PSA” value in data set [1] is 25 min. Moreover, the EC50 in data set [2] was 5.5 µM; in the data set on DuPRO cells it was over 100 µM.

For `COc1cccc2c1C(=O)c1c(O)c3c(c(O)c1C2=O)C[C@@](O)(C(=O)CO)C[C@@H]3O[C@H]1C[C@H](NC(=O)[C@@H](CC(C)C)NC(=O)[C@H](CO)NC(=O)[C@H](CCC(N)=O)NC(=O)[C@@H](NC(=O)[C@H](CO)NC(=O)[C@H](CO)NC(=O)[C@H](CO)NC(=O)[C@@H](O)CO)C2CCCCC2)[C@H](O)[C@H](C)O1` [(l)(2,3-dihydroxypropionyl)SerSerSerChgGln-Ser(dLeu)-DOX (3′)] ({Glyceroyl(2S)}-SSS[Chg]QS[dL]-{Doxorubicin(3'-N)}), the “Time to 50% Substrate Cleavage by York PSA” value in data set [1] was 180 min. In addition, the figures for the EC50 (in data set [2]; with DuPRO cells) were 91 µM and over 100 µM, respectively.

For `COCCOCCOCC(=O)N[C@@H](CCCCNC(=N)N)C(=O)N[C@@H](CO)C(=O)N[C@@H](CO)C(=O)N[C@H](C(=O)N[C@@H](CCC(N)=O)C(=O)N[C@@H](CO)C(=O)N[C@@H](CC(C)C)C(=O)N[C@H]1C[C@H](O[C@H]2C[C@](O)(C(=O)CO)Cc3c(O)c4c(c(O)c32)C(=O)c2c(OC)cccc2C4=O)O[C@@H](C)[C@H]1O)C1CCCCC1` [PEG(2)-HomoRSSChgQ-SL-DOX (3′), PEG(2)-hArgSerSerChgGln-SerLeu-DOX (3′)] ({Decanoyl(3,6,9-trioxa)}-[hArg]SS[Chg]QSL-{Doxorubicin(3'-N)}), the “Time to 50% Substrate Cleavage by York PSA” value in data set [1] was determined as 11 min. The EC50 was 5.7 µM in data set [2] and over 100 µM in the data set on DuPRO cells.
